Experimental data: US10107817B2, “Oligopeptide specific to ovarian cancer, polynucleotide for encoding oligopeptide, test kit for detecting ovarian cancer and method for detecting ovarian cancer” (NATIONAL TSING HUA UNIVERSITY, priority 2016, dated 2018)

What was measured:
[1] = tested on: normal ovarian tissue section; test: Binding of the FAM-labelled oligopeptide to control tissue section, fluorescence microscopy; conditions: 60 rpm, 60 minutes, room temperature, FIG. 2
Text: (§1) In subsequent examples, the oligopeptide of the present disclosure is used to detect whether the sample has the oligopeptide-cancer cell complex. The oligopeptide consisted of the amino acid sequence of SEQ ID NO: 1 is chemically synthesized and modified a green fluorescence (FAM) at N-terminus in subsequent examples.
(§2) The sample uses in this example is the ovarian cancer tissue including an ovarian serous tumor tissue section, an ovarian mucinous tumor tissue section and an ovarian clear cell carcinoma tissue section. Besides, a normal ovarian tissue section is used as a control. The oligopeptide modified with the green fluorescence is respectively mixed with different groups of the sample at 60 rpm for 60 minutes at room temperature. The samples are washed several times with PBS containing 1% BSA. Then the sample is observed under a fluorescence microscopy, wherein the green fluorescent signal represents that the oligopeptide-cancer cell complex is presented in the sample.

OVCAR3 cell = test: Binding of the FAM-labelled oligopeptide to ovarian cancer cells, fluorescence microscopy; parameters: species or system human; conditions: 12-well plate, 1×10^5 cells/well, 60 rpm, 60 minutes, room temperature, FIG. 3
Text: as §1
(§3) The sample uses in this example is the ovarian cancer cell, wherein the ovarian cancer cell is OVCAR3 cell (a human serous epithelial ovarian cancer cell line). Besides, a normal cervical epithelial cell is used as the control. The OVCAR3 cell and the normal cervical epithelial cell are cultured and stored in Department of Obstetrics and Gynecology of National Cheng Kung University Hospital. The OVCAR3 cell and the normal cervical epithelial cell are respectively seeded in a 12-well plate with 1×10^5 cells/well and then maintained at 37° C. in a humidified atmosphere of 5% CO2 until the cells are adhered in the next day. The oligopeptide modified with the green fluorescence is respectively mixed with different groups of the sample at 60 rpm for 60 minutes at room temperature. The sample is washed several times with the PBS containing 1% BSA. Then the sample is observed under a fluorescence microscopy, wherein the green fluorescent signal represents that the oligopeptide-cancer cell complex is presented in the sample.

[2] = tested on: normal cervical epithelial cell; test: Binding of the FAM-labelled oligopeptide to control cells, fluorescence microscopy; conditions: 12-well plate, 1×10^5 cells/well, 60 rpm, 60 minutes, room temperature, FIG. 3
Text: as §1, §3

[3] = tested on: ovarian serous tumor tissue section; test: Binding of the FAM-labelled oligopeptide to ovarian cancer tissue sections, fluorescence microscopy; conditions: 60 rpm, 60 minutes, room temperature, FIG. 2
Text: as §1, §2

[4] = tested on: ovarian mucinous tumor tissue section; test: as above; conditions: 60 rpm, 60 minutes, room temperature, FIG. 2
Text: as §1, §2

[5] = tested on: ovarian clear cell carcinoma tissue section; test: as above; conditions: 60 rpm, 60 minutes, room temperature, FIG. 2
Text: as §1, §2

oligopeptide of the present disclosure: oligopeptide consisted of the amino acid sequence of SEQ ID NO: 1, chemically synthesized, specific to ovarian cancer (KRLTPLSPDHYD)
green fluorescent signal (oligopeptide-cancer cell complex) [1]: no significant green fluorescent signal detected
FAM signal (oligopeptide-cancer cell complex) (OVCAR3 cell): FAM signal can be detected
FAM signal (oligopeptide-cancer cell complex) [2]: no significant FAM signal detected
green fluorescent signal (oligopeptide-cancer cell complex) [3]: green fluorescent signal can be detected
green fluorescent signal (oligopeptide-cancer cell complex) [4]: green fluorescent signal can be detected
green fluorescent signal (oligopeptide-cancer cell complex) [5]: green fluorescent signal can be detected
